pIC50: −log10 of the molar value.
These compounds were tested on HBV cccDNA (HBeAg as surrogate marker) in HepDES19 cells (assay: Engineered HepDES19 primary screen assay (HBeAg as surrogate marker for cccDNA)). Conditions: Hepatitis B virus, HepDES19, 120 h.
Type: cell-based
From the text: The assay was employed to screen for cccDNA inhibitors. HepDES19 is a cccDNA-producing cell line. In this cell line, HBeAg in the cell culture supernatant as surrogate marker, as HBeAg production depends on cccDNA level and activity. HepDES19 is an engineered cell line which contains a 1.1 unit length HBV genome, and pgRNA transcription from the transgene is controlled by Tetracycline (Tet). In the absence of Tet, pgRNA transcription will be induced, but HBV e antigen (HBeAg) could not be produced from this pgRNA due to very short leader sequence before the HBeAg start codon and the start codon is disrupted. Only after cccDNA is formed, the missing leader sequence and start codon mutation would be restored from the 3′-terminal redundancy of pgRNA, and then HBeAg could be synthesized. Therefore, HBeAg could be used as a surrogate marker for cccDNA (Zhou, T. et al., Antiviral Res. (2006), 72 (2), 116-124; Guo, H. et al., J. Virol. (2007), 81 (22), 12472-12484).
HepDES19 cells were seeded at 2×10^6 cells per T150 flask and cultured with the culture medium (Dulbecco's Modified Eagle Medium: Nutrient Mixture F-12 [DMEM-F12, Gibco Cat. 11320-82], 10% Fetal Bovine Serum [FBS, Clontech Cat. 631101], 0.1 mM Non-Essential Amino Acids Solution [NEAA, Gibco Cat. 11140-050], 50 μg/mL Penicillin-Streptomycin [PS, Invitrogen Cat. 15140-163], 500 μg/mL Geneticin [G418, Invitrogen Cat. 10131-027]) containing 3 μg/mL Tet (Sigma, Cat. 87128) for 5 days. Cells were then seeded at 4×10^6 cells per T150 in the same culture medium as described above in the absence of Tet for 8 days. Cells were then harvested and frozen at density of 2×10^6 cells per mL. For compound testing, the frozen cells were thawed and seeded into 96-well plates at a density of 6×10^4 cells per well. At 24 hours after seeding, half log serial dilutions of compounds made with Dimethyl sulfoxide (DMSO, Sigma, Cat. D2650) were further diluted with the same culture medium as described above before they were added to the cells to reach desired final compound concentrations and 1% DMSO concentration. Plates were then incubated at 37° C. for another 5 days before measurement of HBeAg level and cell viability. Intracellular HBeAg level were measured with enzyme-linked immunosorbent assay (ELISA) kit (Shanghai Kehua Diagnostic Medical Products Co., Ltd). Cell viability was assessed using Cell Counting Kit-8 (DonJindo, Cat. CK04-20). IC50 values were derived from the dose-response curve using 4 parameters logistic curve fit method.
The compounds of the present invention were tested for their capacity to inhibit extracellular HBeAg level as described herein.
Work on COc1ccc2c(c1Cl)OC(c1ccc(C(F)(F)F)cc1OCCC(=O)O)CC2=O (stereo not shown) [Example 4, 3-[2-(8-chloro-7-methoxy-4-oxo-chroman-2-yl)-5-(trifluoromethyl)phenoxy]propanoic Acid] yielded a pIC50 of 5.28. Compound COc1cc(Cl)c2c(c1)C(=O)CC(c1ccc(C(F)(F)F)cc1OCCC(=O)O)O2 (stereo not shown) [Example 5, 3-[2-(8-chloro-6-methoxy-4-oxo-chroman-2-yl)-5-(trifluoromethyl)phenoxy]propanoic Acid] has a pIC50 of 5.51. O=C(O)CCOc1cc(C(F)(F)F)ccc1C1CC(=O)c2c(O)ccc(Cl)c2O1 (stereo not shown) [Example 6, 3-[2-(8-chloro-5-hydroxy-4-oxo-chroman-2-yl)-5-(trifluoromethyl)phenoxy]propanoic Acid] gave a pIC50 of 5.28. Cc1cc(C2CC(=O)c3cccc(Cl)c3O2)c(OCCC(=O)O)cc1Br (stereo not shown) [Example 7, 3-[5-bromo-2-(8-chloro-4-oxo-chroman-2-yl)-4-methyl-phenoxy]propanoic Acid] showed a pIC50 of 5.03. COc1cc(C2CC(=O)c3cccc(Cl)c3O2)c(OCCC(=O)O)cc1Br (stereo not shown) [Example 8, 3-[5-bromo-2-(8-chloro-4-oxo-chroman-2-yl)-4-methoxy-phenoxy]propanoic Acid] showed a pIC50 of 4.95. In the case of COc1cc(OCCC(=O)O)c(C2CC(=O)c3cccc(Cl)c3O2)cc1C (stereo not shown) [Example 9, 3-[2-(8-chloro-4-oxo-chroman-2-yl)-5-methoxy-4-methyl-phenoxy]propanoic Acid], the pIC50 was 5.03. COc1cc(C2CC(=O)c3cccc(Cl)c3O2)c(OCCC(=O)O)cc1Cl (stereo not shown) [Example 10, 3-[5-chloro-2-(8-chloro-4-oxo-chroman-2-yl)-4-methoxy-phenoxy]propanoic Acid] gave a pIC50 of 4.94. With O=C(O)CCOc1cc2c(cc1C1CC(=O)c3cccc(Cl)c3O1)OCO2 (stereo not shown) [Example 12, 3-[[6-(8-chloro-4-oxo-chroman-2-yl)-1,3-benzodioxol-5-yl]oxy]propanoic Acid] the pIC50 was 5.00. Cc1cc(C2CC(=O)c3cccc(Cl)c3O2)c(OCCC(=O)O)cc1Cl (stereo not shown) [Example 14, 3-[5-chloro-2-(8-chloro-4-oxo-chroman-2-yl)-4-methyl-phenoxy]propanoic Acid] gave a pIC50 of 5.98. Work on O=C(O)CCOc1cc(OC(F)(F)F)c(Br)cc1C1CC(=O)c2cccc(Cl)c2O1 (stereo not shown) [Example 15, 3-[4-bromo-2-(8-chloro-4-oxo-chroman-2-yl)-5-(trifluoromethoxy)phenoxy]propanoic Acid] yielded a pIC50 of 5.82. O=C(O)CCOc1cc(Br)ccc1[C@@H]1CC(=O)c2cccc(Cl)c2O1 [Example 16-A, 3-[5-bromo-2-[(2S)-8-chloro-4-oxo-chroman-2-yl]phenoxy]propanoic Acid] was tested, and the pIC50 was 5.61. O=C(O)CCOc1cc(Br)ccc1[C@H]1CC(=O)c2cccc(Cl)c2O1 [Example 16-B, 3-[5-bromo-2-[(2R)-8-chloro-4-oxo-chroman-2-yl]phenoxy]propanoic Acid] showed a pIC50 of 6.32. O=C1CC(c2ccc(C(F)(F)F)cc2OC2CC(C(=O)O)C2)Oc2c(Cl)cccc21 (stereo not shown) [Example 17, 3-[2-(8-chloro-4-oxo-chroman-2-yl)-5-(trifluoromethyl)phenoxy]cyclobutanecarboxylic Acid] was tested, and the pIC50 was 5.81. Compound Cc1cc(C2CC(=O)c3cccc(Cl)c3O2)c(OC2CC(C(=O)O)C2)cc1Cl (stereo not shown) [Example 18, 3-[5-chloro-2-(8-chloro-4-oxo-chroman-2-yl)-4-methyl-phenoxy]cyclobutanecarboxylic Acid] has a pIC50 of 6.12. For CC(C)(COc1cc(C(F)(F)F)ccc1C1CC(=O)c2cccc(Cl)c2O1)C(=O)O (stereo not shown) [Example 19, 3-[2-(8-chloro-4-oxo-chroman-2-yl)-5-(trifluoromethyl)phenoxy]-2,2-dimethyl-propanoic Acid], the pIC50 was 6.59. Compound O=C1CC(c2ccc(C(F)(F)F)cc2OCCOC2CC(C(=O)O)C2)Oc2c(Cl)cccc21 (stereo not shown) [Example 20, 3-[2-[2-(8-chloro-4-oxo-chroman-2-yl)-5-(trifluoromethyl)phenoxy]ethoxy]cyclobutanecarboxylic Acid] has a pIC50 of 8.00. O=C(O)COCCOc1cc(C(F)(F)F)ccc1C1CC(=O)c2cccc(Cl)c2O1 (stereo not shown) [Example 21, 2-[2-[2-(8-chloro-4-oxo-chroman-2-yl)-5-(trifluoromethyl)phenoxy]ethoxy]acetic Acid] gave a pIC50 of 5.31. In the case of Cc1ccc(C2CC(=O)c3cccc(Cl)c3O2)c(OCCCOCC(=O)O)c1 (stereo not shown) [Example 22, 2-[3-[2-(8-chloro-4-oxo-chroman-2-yl)-5-methyl-phenoxy]propoxy]acetic Acid], the pIC50 was 5.70. In the case of O=C(O)COCCCOc1cc(C(F)(F)F)ccc1C1CC(=O)c2cccc(Cl)c2O1 (stereo not shown) [Example 23, 2-[3-[2-(8-chloro-4-oxo-chroman-2-yl)-5-(trifluoromethyl)phenoxy]propoxy]acetic Acid], the pIC50 was 5.81. Work on O=C(O)COCCCOc1cc(C(F)(F)F)ccc1C1CC(=O)c2ccc(F)c(Cl)c2O1 (stereo not shown) [Example 24, 2-[3-[2-(8-chloro-7-fluoro-4-oxo-chroman-2-yl)-5-(trifluoromethyl)phenoxy]propoxy]acetic Acid] yielded a pIC50 of 5.15. In the case of O=C(O)CCCOc1cc(C(F)(F)F)ccc1C1CC(=O)c2ccc(F)c(Cl)c2O1 (stereo not shown) [Example 25, 4-[2-(8-chloro-7-fluoro-4-oxo-chroman-2-yl)-5-(trifluoromethyl)phenoxy]butanoic Acid], the pIC50 was 5.93. Work on O=C(O)COc1cc(C(F)(F)F)ccc1C1CC(=O)c2ccc(F)c(Cl)c2O1 (stereo not shown) [Example 26, 2-[2-(8-chloro-7-fluoro-4-oxo-chroman-2-yl)-5-(trifluoromethyl)phenoxy]acetic Acid] yielded a pIC50 of 5.56. CCS(=O)(=O)N[C@H](COc1cc(C(F)(F)F)ccc1C1CC(=O)c2cccc(Cl)c2O1)C(=O)OC (stereo partly drawn) [Example 27, Methyl (2R)-3-[2-(8-chloro-4-oxo-chroman-2-yl)-5-(trifluoromethyl)phenoxy]-2-(ethylsulfonylamino)propanoate] showed a pIC50 of 6.24. Work on CCS(=O)(=O)N[C@@H](COc1cc(C(F)(F)F)ccc1C1CC(=O)c2cccc(Cl)c2O1)C(=O)O (stereo partly drawn) [Example 29, (2S)-3-[2-(8-chloro-4-oxo-chroman-2-yl)-5-(trifluoromethyl)phenoxy]-2-(ethylsulfonylamino)propanoic Acid] yielded a pIC50 of 5.72. In the case of NS(=O)(=O)N[C@H](COc1cc(C(F)(F)F)ccc1[C@@H]1CC(=O)c2cccc(Cl)c2O1)C(=O)O [Example 30-A, (2R)-3-[2-[(2S)-8-chloro-4-oxo-chroman-2-yl]-5-(trifluoromethyl)phenoxy]-2-(sulfamoylamino)propanoic Acid], the pIC50 was 5.47. In the case of NS(=O)(=O)N[C@H](COc1cc(C(F)(F)F)ccc1[C@H]1CC(=O)c2cccc(Cl)c2O1)C(=O)O [Example 30-B, (2R)-3-[2-[(2R)-8-chloro-4-oxo-chroman-2-yl]-5-(trifluoromethyl)phenoxy]-2-(sulfamoylamino)propanoic Acid], the pIC50 was 4.97. CCNS(=O)(=O)N[C@H](COc1cc(C(F)(F)F)ccc1[C@@H]1CC(=O)c2cccc(Cl)c2O1)C(=O)O [Example 31-A, (2R)-3-[2-[(2S)-8-chloro-4-oxo-chroman-2-yl]-5-(trifluoromethyl)phenoxy]-2-(ethylsulfamoylamino)propanoic acid] gave a pIC50 of 5.48. For CCNS(=O)(=O)N[C@H](COc1cc(C(F)(F)F)ccc1[C@H]1CC(=O)c2cccc(Cl)c2O1)C(=O)O [Example 31-B, (2R)-3-[2-[(2R)-8-chloro-4-oxo-chroman-2-yl]-5-(trifluoromethyl)phenoxy]-2-(ethylsulfamoylamino)propanoic Acid], the pIC50 was 4.96.

Reference: patent US20220388972A1, “CHROMAN-4-ONE DERIVATIVES FOR THE TREATMENT AND PROPHYLAXIS OF HEPATITIS B VIRUS INFECTION” (Hoffmann-La Roche Inc., priority 2018, published 2022)
